These results are taken from patent publication US12042503B2, “Compositions and methods for treating coronavirus infections” (priority 2020, dated 2024).

The structures appear in SMILES notation. Some results are limits rather than exact numbers.

Series [1] concerns the target T1, EP3 receptor (PTGER3) (Homo sapiens, UniProt P43115).
T1 construct: host or cells: PathHunter beta-arrestin cell line
T1 sequence (P43115 1-390): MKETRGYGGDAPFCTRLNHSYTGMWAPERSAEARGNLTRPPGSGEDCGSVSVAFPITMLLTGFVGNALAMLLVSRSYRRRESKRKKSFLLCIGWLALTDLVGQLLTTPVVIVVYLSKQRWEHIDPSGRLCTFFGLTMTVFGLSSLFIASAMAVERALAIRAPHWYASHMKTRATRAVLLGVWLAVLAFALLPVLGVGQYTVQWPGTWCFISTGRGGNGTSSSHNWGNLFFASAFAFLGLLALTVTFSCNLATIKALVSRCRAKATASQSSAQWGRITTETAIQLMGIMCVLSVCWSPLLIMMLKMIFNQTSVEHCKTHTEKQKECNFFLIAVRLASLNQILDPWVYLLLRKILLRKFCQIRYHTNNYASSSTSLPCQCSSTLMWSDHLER
The experiment in a line: PathHunter beta-arrestin cell-based prostanoid receptor assay, EP3. Particulars: β-Arrestin. The method, then: (§1) DiscoverX cell-based ligand binding assays were performed in the PathHunter beta-arrestin (EP1, EP2, EP3, EP4, FP, IP, and TP receptors) or cAMP Hunter™ (DP receptor) cell lines.
(§2) Receptor binding studies were performed in either the PathHunter® b-Arrestin (EP1, EP2, EP3, EP4, FP, IP, and TP receptors) or cAMP Hunter™ (DP receptor) cell lines. A 10 mM working stock of GP1681 was created in 1×PBS, pH 7.4. All assays were carried out in duplicate with 10 individual concentrations of GP1681. A three-fold dilution series of GP1681 was established for the initial or pilot experiment with a starting concentration of 4 uM (starting concentration was chosen based on previous Gemmus Pharma preclinical experimental results).
GP1681 was incubated with cells lines at either 37° C. or room temperature, for 90-180 minutes (temperatures and incubation times are all dependent on established optimized procedures for each receptor cell line) after which cell wells were processed and signal production detected. […] Receptor binding activity was analyzed using CBIS data analysis suite (ChemInnovation, CA). The percentage of activity was calculated using the following formula: % Activity=100%×(mean RLU of test sample−mean RLU of vehicle control)/(mean MAX control ligand−mean RLU of vehicle control). Dose curves were performed and EC50 values determined. […]

Series [2] concerns the target T2, EP2 receptor (PTGER2) (Homo sapiens, UniProt P43116).
T2 construct: host or cells: PathHunter beta-arrestin cell line
Briefly: PathHunter beta-arrestin cell-based prostanoid receptor assay, EP2. On the procedure:
as §1, §2
GP1681 was incubated with cells lines at either 37° C. or room temperature, for 90-180 minutes (temperatures and incubation times are all dependent on established optimized procedures for each receptor cell line) after which cell wells were processed and signal production detected. […] Receptor binding activity was analyzed using CBIS data analysis suite (ChemInnovation, CA). The percentage of activity was calculated using the following formula: % Activity=100%×(mean RLU of test sample−mean RLU of vehicle control)/(mean MAX control ligand−mean RLU of vehicle control). Dose curves were performed and EC50 values determined.

The nature of series [3]: Stability of GP1681 dosing formulations at room temperature by UHPLC. The format is physicochemical. As to conditions: 10% (w/v) PEG 400 in calcium and magnesium free PBS, pH 7.4; 0.0319 and 0.0596 mg/mL. The method, then:
GP1681 in 10% (w/v) polyethylene glycol (PEG) 400 in calcium and magnesium free phosphate buffered saline (PBS), pH 7.4 was used for evaluation by ultra-high performance liquid chromatography (UHPLC; Agilent 1290 UHPLC instrument).
Dosing formulations of GP1681 (0, 0.01, 0.03, and 0.05 mg/mL) in 10% (w/v) PEG 400 in calcium and magnesium free PBS, pH 7.4 were collected and analyzed by UHPLC to assess accuracy of the preparation. Aliquots from the top, middle and bottom of the formulations were collected and analyzed to assess homogeneity of the formulations. The dosing formulations were diluted to bring the test article concentration to a suitable level within the calibration range. The samples were initially analyzed on the day of preparation. However, due to unacceptable results observed, the backup samples (stored at −10 to −30° C.) were analyzed five days later.
The concentration of GP1681 was calculated by reference to the solvent standard solutions prepared and analyzed concurrently with the dosing formulations. […]
Stability of the dosing formulations was determined by storing the middle aliquots of the high and low primary dose formulation samples in the Definitive Assay at room temperature for 3.7 hours and reanalyzing as described above. The results met the acceptance criterion of 90-110% of the concentration determined at T=0.

Series [4] deals with T3, TP receptor (TBAX2R) (Homo sapiens, UniProt P21731).
T3 construct: host or cells: PathHunter beta-arrestin cell line
T3 sequence (P21731 1-343): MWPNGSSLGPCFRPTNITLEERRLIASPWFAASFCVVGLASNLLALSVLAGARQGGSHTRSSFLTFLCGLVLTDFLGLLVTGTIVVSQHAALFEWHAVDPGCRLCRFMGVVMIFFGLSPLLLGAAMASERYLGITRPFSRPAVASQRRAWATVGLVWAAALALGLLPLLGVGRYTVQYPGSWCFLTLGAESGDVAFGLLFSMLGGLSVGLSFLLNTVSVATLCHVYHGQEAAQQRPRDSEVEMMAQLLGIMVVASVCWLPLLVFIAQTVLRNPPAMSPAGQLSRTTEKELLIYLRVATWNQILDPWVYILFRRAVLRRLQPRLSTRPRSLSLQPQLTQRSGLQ
Briefly: PathHunter beta-arrestin cell-based prostanoid receptor assay, TP. On the procedure:
as §1, §2
(§3) GP1681 was incubated with cells lines at either 37° C. or room temperature, for 90-180 minutes (temperatures and incubation times are all dependent on established optimized procedures for each receptor cell line) after which cell wells were processed and signal production detected. […] Vehicle only controls (PBS, pH 7.4) were also included for each receptor cell line. Receptor binding activity was analyzed using CBIS data analysis suite (ChemInnovation, CA). The percentage of activity was calculated using the following formula: % Activity=100%×(mean RLU of test sample−mean RLU of vehicle control)/(mean MAX control ligand−mean RLU of vehicle control). Dose curves were performed and EC50 values determined.

Series [5] deals with T4, IP receptor (PTGIR) (Homo sapiens, UniProt P43119).
T4 construct: host or cells: PathHunter beta-arrestin cell line
The experiment in a line: PathHunter beta-arrestin cell-based prostanoid receptor assay, IP. As to conditions: Run 1, GP1681 starting concentration 4 uM; β-Arrestin; read-out: EC50. The method, then: as §1, §2, §3

The mark [6] stands for this setting: Run 1, GP1681 starting concentration 4 uM, β-Arrestin.

T2 sequence (P43116 whole entry): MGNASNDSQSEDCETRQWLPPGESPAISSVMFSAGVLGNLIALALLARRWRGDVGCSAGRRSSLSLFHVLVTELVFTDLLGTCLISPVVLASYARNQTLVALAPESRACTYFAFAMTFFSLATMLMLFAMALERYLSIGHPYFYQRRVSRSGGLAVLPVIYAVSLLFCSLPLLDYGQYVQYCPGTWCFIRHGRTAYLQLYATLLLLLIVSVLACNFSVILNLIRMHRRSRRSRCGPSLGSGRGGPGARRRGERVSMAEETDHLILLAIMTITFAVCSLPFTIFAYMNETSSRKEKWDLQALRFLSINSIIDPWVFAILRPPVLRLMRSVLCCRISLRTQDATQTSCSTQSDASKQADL
T4 sequence (P43119 whole entry): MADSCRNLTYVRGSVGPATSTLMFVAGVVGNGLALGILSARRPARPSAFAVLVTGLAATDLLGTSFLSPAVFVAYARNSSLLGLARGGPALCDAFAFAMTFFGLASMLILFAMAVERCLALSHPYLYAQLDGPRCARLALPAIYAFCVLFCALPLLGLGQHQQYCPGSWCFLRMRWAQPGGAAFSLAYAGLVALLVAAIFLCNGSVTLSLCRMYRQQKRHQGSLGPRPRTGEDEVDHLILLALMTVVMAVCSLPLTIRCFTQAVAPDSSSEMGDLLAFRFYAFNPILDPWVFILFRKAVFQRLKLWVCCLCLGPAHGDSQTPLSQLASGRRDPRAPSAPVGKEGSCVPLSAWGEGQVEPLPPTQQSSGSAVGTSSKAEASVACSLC

For `CC#CCC(C)C(O)C=CC1C(O)CC2Oc3c(CCCC(=O)O)cccc3C21` (single isomer, unassigned) [GP1681, esuberaprost], the EC50 in series [1] (Run 1, GP1681 starting concentration 4 uM, curve for GP1681 not fully sigmoidal) is 1830 nM; in series [1] (Run 2, GP1681 starting concentration 500 μM), 5390 nM; in series [2] (setting [6]), more than 4000 nM; in series [4] (setting [6]), more than 4000 nM; in series [5], 110 nM. In addition, in series [2], the “binding to EP2 receptor, in words” value is given as “does not bind”. Also, the “stable at room temperature” value in series [3] is recorded as “at least 3.7 hours”. For the same compound, in series [4], the “binding to TP receptor, in words” value was “does not bind”.
